Laboratory results published in patent US9695164B2, “Crystalline forms of pyrroloquinoline quinone disodium salt” (Zhucheng Haotian Pharm Co., Ltd., priority 2012, dated 2017).
Entries after “also recorded” stand apart in the source; their conditions may differ. Counter-ions that a name gives are not always drawn. Values belong to the compound of their own block, whether it stands above or below them.

Tests used:
Type in all cases: physicochemical
[1] = Solvent content (thermogravimetric analysis, Table 3); conditions: disodium salt
Experimental: 2. Thermogravimetric Analysis
(the theoretical weight loss of a water molecule is 4.6%). It is possibly a hydrate. The peak temperature of decomposition is 312.5° C.
Instrument model: Netzsch TG 209F3
Temperature range: 30-400° C.
Protection gas: 15 mL/min

[2] = Hygroscopic analysis (DVS); conditions: 25° C.; for moisture absorption / hygroscopicity compared among crystal forms (overlay of DVS graphs) / hygroscopicity (in words): disodium salt; for hygroscopicity compared among crystal forms (overlay of DVS graphs): at 80% RH; for variation of hygroscopicity: conventional storage environment of 40-80 RH
Experimental: 4. Hygroscopic Analysis As indicated by DVS (FIG. 4), crystalline Form A absorbs 1.6% of moisture at 40% RH, 2.3% at 65% RH, and 2.8% at 80% RH. […] Instrument model: SMS DVS Intrinsic, 0-95% RH, Temperature: 25° C. As described above, crystal E was prepared according to Example 1 in patent literature 1. The hygroscopic analysis graph of crystal E (shown in FIG. 21) was obtained using the DVS test method and conditions used in the foregoing examples, and its hygroscopic property was compared with those of crystals A and B according to the invention (the results are shown in FIG. 22).

[3] = Crystal form stability (Table 3); conditions: disodium salt
[4] = Approximate solubility of PQQ disodium salt in various solvents by gravimetric analysis; conditions: for Solubility @ 25: 25° C.; for Solubility @ 50: 50° C.
Experimental: Before preparation of the crystals, conventional methods may be employed to measure the solubility of the PQQ disodium salt in different solvents, and subsequently appropriate solvent(s) may be selected to prepare the crystals of the invention. For example, the following method may be used to measure the solubility of the PQQ disodium salt in various solvents:
(1) At 25° C. and 50° C. respectively, about 25 mg PQQ disodium salt is stirred in 1 ml solvent to equilibrium for at least 24 h, and subsequently the solution is filtered, wherein the solvent in the liquid part is volatized under vacuum completely. The approximate solubility of the raw material in the solvent is determined by gravimetric analysis.
Gravimetric analysis: a volume (generally 0.5 mL) of the filtrate is weighed accurately and placed in a vessel which has already been dried and weighed, wherein the weight of the vessel is indicated as Mhollow. Subsequently, the total weight of the vessel and the filtrate is measured and indicated as M0. Then, the weight of the filtrate is M0−Mhollow. After the solvent is volatized completely under vacuum, the total weight is measured accurately again (indicated as M1). Then, the mass of the precipitated solid is M1−Mhollow, and the mass of the solvent is M0−M1. As such, the approximate solubility of the raw material in this solvent is: X(g)=[(M1−Mhollow)/(M0−M1)]×100(g)

[5] = solvent acetonitrile:methyl isobutyl ketone (1.1)
[6] = solvent acetonitrile:methyl tert-butyl ether (1:1), first line (r31)
[7] = solvent acetonitrile:methyl tert-butyl ether (1:1), second line (r33)
[8] = solvent acetonitrile:toluene (1:1)
[9] = solvent acetonitrile:water (1:1)
[10] = solvent methyl tert-butyl ether
[11] = solvent tetrahydrofuran:water (1:1)

Structure (SMILES): O=C(O)c1cc(C(=O)O)c2c(n1)C(=O)C(=O)c1cc(C(=O)O)[nH]c1-2 [crystalline Form C, pyrroloquinoline quinone disodium salt]
Solvent content (%) [1]: 11.4%
moisture absorption ([2]; 40% RH): 7.8%
hygroscopicity compared among crystal forms (overlay of DVS graphs) [2]: largest hygroscopicity
hygroscopicity (in words) [2]: highly hygroscopic

Structure (SMILES): O=C(O)c1cc(C(=O)O)c2c(n1)C(=O)C(=O)c1cc(C(=O)O)[nH]c1-2 [crystalline Form A, pyrroloquinoline quinone disodium salt]
Crystal form stability [3]: Stable
Solvent content (%) [1]: 7.4%
moisture absorption ([2]; 40% RH): 1.6%
hygroscopicity compared among crystal forms (overlay of DVS graphs) [2]: smallest hygroscopicity
variation of hygroscopicity [2]: less than 2%
hygroscopicity (in words) [2]: only slightly hygroscopic

Structure (SMILES): O=C(O)c1cc(C(=O)O)c2c(n1)C(=O)C(=O)c1cc(C(=O)O)[nH]c1-2 [crystalline Form B, pyrroloquinoline quinone disodium salt]
Crystal form stability [3]: Stable
Solvent content (%) [1]: 12.2%
moisture absorption ([2]; 40% RH): 7.3%
hygroscopicity compared among crystal forms (overlay of DVS graphs) [2]: medium hygroscopicity; also recorded: relatively large hygroscopicity

Second part, led by results:

moisture absorption ([2]; 40% RH): 11.8%
moisture absorption ([2]; 65% RH): 13.0%
moisture absorption ([2]; 80% RH): 13.6%
hygroscopicity compared among crystal forms (overlay of DVS graphs) [2]: largest hygroscopicity
variation of hygroscopicity [2]: less than 2%
Structure (SMILES): O=C(O)c1cc(C(=O)O)c2c(n1)C(=O)C(=O)c1cc(C(=O)O)[nH]c1-2 [crystal E, pyrroloquinoline quinone disodium salt]
hygroscopicity (in words) [2]: rather hygroscopic; also recorded: slightly hygroscopic

Solubility @ 25 ([4]; solvent acetone:water (1:1)): 0.53 g/100 g
Solubility @ 50 ([4]; solvent acetone:water (1:1)): 1.36 g/100 g
Solubility @ 25 ([4]; solvent acetone): 0.13 g/100 g
Solubility @ 50 ([4]; solvent acetone): 0.05 g/100 g
Solubility @ 25 [4, 5]: 0.09 g/100 g
Solubility @ 50 [4, 5]: 0.04 g/100 g
Solubility @ 25 [4, 6]: 0.10 g/100 g
Solubility @ 50 [4, 6]: 0.04 g/100 g
Solubility @ 25 [4, 7]: 0.03 g/100 g
Solubility @ 50 [4, 7]: 0.02 g/100 g
Solubility @ 25 [4, 8]: 0.04 g/100 g
Solubility @ 50 [4, 8]: 0.00 g/100 g
Solubility @ 25 [4, 9]: 0.22 g/100 g
Solubility @ 50 [4, 9]: 0.14 g/100 g
Solubility @ 25 ([4]; solvent acetonitrile): 0.01 g/100 g
Solubility @ 50 ([4]; solvent acetonitrile): 0.05 g/100 g
Solubility @ 25 ([4]; solvent chloroform): 0.02 g/100 g
Solubility @ 50 ([4]; solvent chloroform): 0.03 g/100 g
Solubility @ 25 ([4]; solvent dichloromethane): 0.02 g/100 g
Solubility @ 50 ([4]; solvent dichloromethane): 0.04 g/100 g
Solubility @ 25 ([4]; solvent ethanol:water (1:1)): 0.10 g/100 g
Solubility @ 50 ([4]; solvent ethanol:water (1:1)): 0.10 g/100 g
Solubility @ 25 ([4]; solvent ethanol): 0.08 g/100 g
Solubility @ 50 ([4]; solvent ethanol): 0.11 g/100 g
Solubility @ 25 ([4]; solvent ethyl acetate): 0.11 g/100 g
Solubility @ 50 ([4]; solvent ethyl acetate): 0.09 g/100 g
Solubility @ 25 ([4]; solvent ethyl ether): 0.06 g/100 g
Solubility @ 50 ([4]; solvent ethyl ether): 0.01 g/100 g
Solubility @ 25 ([4]; solvent heptane): 0.02 g/100 g
Solubility @ 50 ([4]; solvent heptane): 0.11 g/100 g
Solubility @ 25 ([4]; solvent hexane): 0.06 g/100 g
Solubility @ 50 ([4]; solvent hexane): 0.02 g/100 g
Solubility @ 25 ([4]; solvent isopentanol): 0.02 g/100 g
Solubility @ 50 ([4]; solvent isopentanol): 0.00 g/100 g
Solubility @ 25 ([4]; solvent isopropanol): 0.09 g/100 g
Solubility @ 50 ([4]; solvent isopropanol): 0.08 g/100 g
Solubility @ 25 ([4]; solvent isopropyl acetate): 0.36 g/100 g
Solubility @ 50 ([4]; solvent isopropyl acetate): 0.03 g/100 g
Solubility @ 25 ([4]; solvent methanol:water (1:1)): 0.15 g/100 g
Solubility @ 50 ([4]; solvent methanol:water (1:1)): 0.13 g/100 g
Solubility @ 25 ([4]; solvent methanol): 0.09 g/100 g
Solubility @ 50 ([4]; solvent methanol): 0.11 g/100 g
Solubility @ 25 ([4]; solvent methyl ethyl ketone): 0.16 g/100 g
Solubility @ 50 ([4]; solvent methyl ethyl ketone): 0.06 g/100 g
Solubility @ 25 ([4]; solvent methyl isobutyl ketone): 0.05 g/100 g
Solubility @ 50 ([4]; solvent methyl isobutyl ketone): 0.07 g/100 g
Solubility @ 25 [4, 10]: 0.05 g/100 g
Solubility @ 50 [4, 10]: 0.03 g/100 g
Solubility @ 25 ([4]; solvent nitromethane): 0.01 g/100 g
Solubility @ 50 ([4]; solvent nitromethane): 0.02 g/100 g
Solubility @ 25 [4, 11]: 0.24 g/100 g
Solubility @ 50 [4, 11]: 0.29 g/100 g
Solubility @ 25 ([4]; solvent tetrahydrofuran): 0.15 g/100 g
Solubility @ 50 ([4]; solvent tetrahydrofuran): 0.24 g/100 g
Solubility @ 25 ([4]; solvent toluene): 0.02 g/100 g
Solubility @ 50 ([4]; solvent toluene): 0.05 g/100 g
Solubility @ 25 ([4]; solvent water): 0.37 g/100 g
Solubility @ 50 ([4]; solvent water): 0.89 g/100 g
Structure (SMILES): O=C(O)c1cc(C(=O)O)c2c(n1)C(=O)C(=O)c1cc(C(=O)O)[nH]c1-2 [PQQ disodium salt, pyrroloquinoline quinone disodium salt]
